# Assay results as given in PMC10463376, “Design, synthesis, in vitro anticancer, molecular docking and SAR studies of new series of pyrrolo[2,3-d]pyrimidine derivatives” (BMC Chemistry, 2023).
# Legend:
# Format in all cases: cell-based, human
# [1] = tested on: CDK4; experiment: RT-qPCR CDK4 mRNA in A549; conditions: A549, compared with Dox.
# Protocol: All of the extractions were conducted on ice with ice-cold reagents. Total RNA from the different cell lines was isolated using Trizol (Invitrogen; Life Technologies, USA) according to the method of Sthoeger et al.. The 260:280 ratios were measured to determine RNA quality after the isolation method was completed according to the manufacturer’s instructions. A high-capacity cDNA reverse transcription kit was used to produce complementary DNA (cDNA) (Applied Biosystems, USA). […] The relative gene expression method (i.e., ΔΔCT) was used to analyze the real-time PCR data, as explained in Applied Biosystem User Bulletin No. 2. Each sample and gene were normalized using the β-actin gene.
# [2] = tested on: caspase 3; experiment: ELISA caspase 3 in Paca2 cells; conditions: control 5.34
# Source text: (§1) Elisa assay was used to determine the concentrations of Human caspases-3, -8, Bax, and Bcl2 in PACA2- and A549-treated cells. Also, the concentrations of caspase-8, Bax, and Bcl2 in MCF7-treated cells were detected. The procedures were followed up according to the instructions described in the following kits; Invitrogen human Caspase-3 Elisa Kit, Catalog KHO1091, DRG® human Caspase-8 ELISA Kit, Catalog (EIA-4863), Human Bax ELISA Kit (ab199080) and Human Bcl-2 ELISA Kit (ab119506) respectively. Shortly, the protocol described in the above kits was as followed; at the beginning, all the reagents, samples and standards were prepared. 100 μl of samples or standard were micro pipetted to each well of micro-well strip and kept at room temperature for 2 h. After washing the micro-well strips three times with washing buffer, the prepared antibody (anti-rabbit-IgG-HRP) at a concentration of 100 μl was added to each well at room temperature for 1 h. Then, the micro-well strips were washed again three times. Afterward, the prepared tetramethyl-benzidine (TMB) solution (100 μl) was added to the micro-well strips and kept for 10 min. […] The absorbance of all samples was measured at a wavelength of 460 nm and compared to that of the standard. Curve fitting software was used to plot a standard curve and the concentrations for the unknown samples were measured from the standard curve.
# [3] = tested on: caspase 8; experiment: ELISA caspase 8 in Paca2 cells; conditions: control 4.85
# Source text: as §1
Compound,CDK4 mRNA level [1],caspase 3 level (ELISA) [2] [pg/mL],caspase 8 level (ELISA) [3] [pg/mL]
"COc1ccc(-c2c(Cl)n(-c3ccc(Cl)cc3Cl)c3ncnc(Cl)c23)cc1OC [Compound 4b, 4,6-dichloro-7-(2,4-dichlorophenyl)-5-(3,4-dimethoxyphenyl)-7H-pyrrolo[2,3-d]pyrimidine]",down-regulated,,
"CN1CCN(c2nc(C(Cl)(Cl)Cl)nc3c2c(-c2ccc(Br)cc2)c(Cl)n3-c2ccc(Cl)cc2Cl)CC1 [Compound 17, 5-(4-bromophenyl)-6-chloro-7-(2,4-dichlorophenyl)-4-(4-methylpiperazin-1-yl)-2-(trichloromethyl)-7H-pyrrolo[2,3-d]pyrimidine]",,9.14,13.86
